From article doi:10.1101/2025.06.24.661388v1 (biorxiv, 2025)

Experiments:
[1] = target: T1, monoacylglycerol lipase (MAGL), mouse brain (Mus musculus, UniProt O35678); assay: displacement autoradiography on brain sections; conditions: unlabelled T-401 against […] [3H]T-401; hippocampus and cerebral cortex
T1 sequence (O35678 1-303): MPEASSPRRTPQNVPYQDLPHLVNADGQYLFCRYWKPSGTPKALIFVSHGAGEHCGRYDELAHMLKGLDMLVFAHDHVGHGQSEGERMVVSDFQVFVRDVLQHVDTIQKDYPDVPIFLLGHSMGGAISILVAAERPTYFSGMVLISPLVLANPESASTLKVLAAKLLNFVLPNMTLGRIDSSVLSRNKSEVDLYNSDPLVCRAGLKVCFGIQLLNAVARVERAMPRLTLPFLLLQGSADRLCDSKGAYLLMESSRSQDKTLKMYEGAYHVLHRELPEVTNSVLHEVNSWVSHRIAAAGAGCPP

[2] = target: T1, monoacylglycerol lipase (MAGL), mouse brain; assay: saturation autoradiography on brain sections; conditions: labelled compound; [3H]T-401 […]; […] min; cerebral cortex
[3] = target: T2, monoacylglycerol lipase (MAGL), human temporal cortex (Homo sapiens, UniProt Q99685); assay: saturation autoradiography on brain sections; conditions: labelled compound, [3H]T-401 […] min, room temperature
T2 sequence (Q99685 1-303): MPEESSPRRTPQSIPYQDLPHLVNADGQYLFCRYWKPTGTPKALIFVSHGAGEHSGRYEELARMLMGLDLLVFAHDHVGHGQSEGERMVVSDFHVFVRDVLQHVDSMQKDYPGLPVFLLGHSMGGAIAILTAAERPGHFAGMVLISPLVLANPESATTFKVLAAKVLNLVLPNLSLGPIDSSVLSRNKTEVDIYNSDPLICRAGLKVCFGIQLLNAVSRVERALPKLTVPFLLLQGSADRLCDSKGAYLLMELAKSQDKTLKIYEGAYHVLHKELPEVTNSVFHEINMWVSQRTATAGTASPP

[4] = target: T2, monoacylglycerol lipase (MAGL), human temporal cortex; assay: displacement autoradiography on brain sections; conditions: unlabelled T-401 against […] [3H]T-401, room temperature

IC50 [1]: 41 nM
Kd [2]: 5.8 nM
Kd [3]: 4.7 ± 0.8 nM
IC50 [4]: 32 nM
SMILES: Cc1ccnc(F)c1-c1cccc(N2C[C@H](N3CCN(C(=O)c4nccs4)CC3)CC2=O)c1 [T-401, (R)-1-(3-(2-fluoro-4-methylpyridin-3-yl)phenyl)-4-(4-(thiazole-2-carbonyl)piperazin-1-yl)pyrrolidine-2-one]
